{
  "source": "ChEMBL document CHEMBL1201862",
  "about": "“PubChem BioAssay data set” (2004)",
  "key": {"[1]": {"target": "Peroxisome proliferator-activated receptor gamma/Nuclear receptor coactivator 1 (Homo sapiens, UniProt P37231)", "assay": "TR-FRET dose response biochemical High Throughput Screening assay for agonists of the steroid receptor coactivator 1 (SRC-1) recruitment by the peroxisome proliferator-activated receptor gamma (PPAR gamma): non-selective agonists. [Related pubchem assays (depositor defined):AID1300, AID1808, AID504735, AID631]", "type": "protein assay"}, "[2]": {"target": "Peroxisome proliferator-activated receptor gamma/Nuclear receptor coactivator 2 (Homo sapiens, UniProt P37231)", "sequence (P37231 whole entry)": "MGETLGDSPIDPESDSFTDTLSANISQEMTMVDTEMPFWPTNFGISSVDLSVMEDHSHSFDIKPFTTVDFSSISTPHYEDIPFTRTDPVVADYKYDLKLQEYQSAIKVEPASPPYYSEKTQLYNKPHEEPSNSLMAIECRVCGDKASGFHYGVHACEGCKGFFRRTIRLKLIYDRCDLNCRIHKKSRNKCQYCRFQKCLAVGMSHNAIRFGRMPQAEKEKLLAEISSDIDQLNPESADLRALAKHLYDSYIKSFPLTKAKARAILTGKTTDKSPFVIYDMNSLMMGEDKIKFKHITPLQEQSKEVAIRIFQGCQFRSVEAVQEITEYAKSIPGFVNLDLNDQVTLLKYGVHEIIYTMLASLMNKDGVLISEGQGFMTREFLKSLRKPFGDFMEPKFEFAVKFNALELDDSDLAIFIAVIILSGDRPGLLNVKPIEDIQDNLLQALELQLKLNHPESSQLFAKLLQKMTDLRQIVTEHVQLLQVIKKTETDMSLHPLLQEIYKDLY", "sequence (Q15596 whole entry, further chain)": "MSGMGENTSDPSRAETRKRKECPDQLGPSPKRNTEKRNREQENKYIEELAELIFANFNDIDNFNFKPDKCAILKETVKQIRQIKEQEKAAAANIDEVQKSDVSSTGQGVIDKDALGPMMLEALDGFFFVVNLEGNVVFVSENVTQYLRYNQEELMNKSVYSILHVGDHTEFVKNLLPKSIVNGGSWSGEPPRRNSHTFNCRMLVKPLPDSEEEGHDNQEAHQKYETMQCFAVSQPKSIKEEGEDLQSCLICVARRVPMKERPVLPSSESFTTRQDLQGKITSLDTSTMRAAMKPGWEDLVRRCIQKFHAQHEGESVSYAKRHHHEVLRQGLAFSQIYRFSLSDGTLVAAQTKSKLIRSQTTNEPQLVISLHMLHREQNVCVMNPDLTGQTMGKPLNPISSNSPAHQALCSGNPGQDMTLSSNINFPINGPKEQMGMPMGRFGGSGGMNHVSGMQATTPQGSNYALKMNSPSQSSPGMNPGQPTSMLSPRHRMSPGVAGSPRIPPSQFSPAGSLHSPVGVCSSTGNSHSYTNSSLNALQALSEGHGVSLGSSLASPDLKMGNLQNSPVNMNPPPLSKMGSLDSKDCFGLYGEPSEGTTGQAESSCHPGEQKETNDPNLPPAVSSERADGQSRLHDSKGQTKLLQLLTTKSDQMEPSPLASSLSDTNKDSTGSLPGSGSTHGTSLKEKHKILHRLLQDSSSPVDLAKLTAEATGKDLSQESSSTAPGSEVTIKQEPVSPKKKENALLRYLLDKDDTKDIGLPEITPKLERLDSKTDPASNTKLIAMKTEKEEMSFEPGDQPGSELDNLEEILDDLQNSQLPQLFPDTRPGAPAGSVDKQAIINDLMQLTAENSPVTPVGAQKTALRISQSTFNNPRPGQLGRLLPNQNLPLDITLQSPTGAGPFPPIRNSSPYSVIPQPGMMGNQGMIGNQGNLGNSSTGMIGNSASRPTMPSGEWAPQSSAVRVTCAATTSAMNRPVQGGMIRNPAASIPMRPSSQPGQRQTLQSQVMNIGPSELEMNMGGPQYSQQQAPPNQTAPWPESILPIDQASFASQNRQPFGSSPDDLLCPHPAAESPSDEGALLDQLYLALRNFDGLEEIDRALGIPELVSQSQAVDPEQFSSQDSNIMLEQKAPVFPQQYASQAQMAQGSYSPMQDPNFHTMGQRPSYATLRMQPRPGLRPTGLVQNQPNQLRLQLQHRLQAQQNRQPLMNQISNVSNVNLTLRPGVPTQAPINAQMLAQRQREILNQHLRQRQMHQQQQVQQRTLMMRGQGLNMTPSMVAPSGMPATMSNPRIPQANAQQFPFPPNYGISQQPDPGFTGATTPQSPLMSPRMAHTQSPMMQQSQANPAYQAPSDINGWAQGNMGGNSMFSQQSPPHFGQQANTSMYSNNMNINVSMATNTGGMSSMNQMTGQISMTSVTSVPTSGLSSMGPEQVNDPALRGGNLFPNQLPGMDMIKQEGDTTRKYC", "assay": "(§1) TR-FRET dose response biochemical High Throughput Screening assay for agonists of the steroid receptor coactivator 2 (SRC-2) recruitment by the peroxisome proliferator-activated receptor gamma (PPAR gamma): non-selective agonists. [Related pubchem assays: 1297, 1032 ]", "type": "functional"}, "[3]": {"target": "Peroxisome proliferator-activated receptor gamma/Nuclear receptor coactivator 3 (Homo sapiens, UniProt P37231)", "sequence (P37231 whole entry)": "as the sequence (P37231 whole entry) above", "sequence (Q9Y6Q9 whole entry, further chain)": "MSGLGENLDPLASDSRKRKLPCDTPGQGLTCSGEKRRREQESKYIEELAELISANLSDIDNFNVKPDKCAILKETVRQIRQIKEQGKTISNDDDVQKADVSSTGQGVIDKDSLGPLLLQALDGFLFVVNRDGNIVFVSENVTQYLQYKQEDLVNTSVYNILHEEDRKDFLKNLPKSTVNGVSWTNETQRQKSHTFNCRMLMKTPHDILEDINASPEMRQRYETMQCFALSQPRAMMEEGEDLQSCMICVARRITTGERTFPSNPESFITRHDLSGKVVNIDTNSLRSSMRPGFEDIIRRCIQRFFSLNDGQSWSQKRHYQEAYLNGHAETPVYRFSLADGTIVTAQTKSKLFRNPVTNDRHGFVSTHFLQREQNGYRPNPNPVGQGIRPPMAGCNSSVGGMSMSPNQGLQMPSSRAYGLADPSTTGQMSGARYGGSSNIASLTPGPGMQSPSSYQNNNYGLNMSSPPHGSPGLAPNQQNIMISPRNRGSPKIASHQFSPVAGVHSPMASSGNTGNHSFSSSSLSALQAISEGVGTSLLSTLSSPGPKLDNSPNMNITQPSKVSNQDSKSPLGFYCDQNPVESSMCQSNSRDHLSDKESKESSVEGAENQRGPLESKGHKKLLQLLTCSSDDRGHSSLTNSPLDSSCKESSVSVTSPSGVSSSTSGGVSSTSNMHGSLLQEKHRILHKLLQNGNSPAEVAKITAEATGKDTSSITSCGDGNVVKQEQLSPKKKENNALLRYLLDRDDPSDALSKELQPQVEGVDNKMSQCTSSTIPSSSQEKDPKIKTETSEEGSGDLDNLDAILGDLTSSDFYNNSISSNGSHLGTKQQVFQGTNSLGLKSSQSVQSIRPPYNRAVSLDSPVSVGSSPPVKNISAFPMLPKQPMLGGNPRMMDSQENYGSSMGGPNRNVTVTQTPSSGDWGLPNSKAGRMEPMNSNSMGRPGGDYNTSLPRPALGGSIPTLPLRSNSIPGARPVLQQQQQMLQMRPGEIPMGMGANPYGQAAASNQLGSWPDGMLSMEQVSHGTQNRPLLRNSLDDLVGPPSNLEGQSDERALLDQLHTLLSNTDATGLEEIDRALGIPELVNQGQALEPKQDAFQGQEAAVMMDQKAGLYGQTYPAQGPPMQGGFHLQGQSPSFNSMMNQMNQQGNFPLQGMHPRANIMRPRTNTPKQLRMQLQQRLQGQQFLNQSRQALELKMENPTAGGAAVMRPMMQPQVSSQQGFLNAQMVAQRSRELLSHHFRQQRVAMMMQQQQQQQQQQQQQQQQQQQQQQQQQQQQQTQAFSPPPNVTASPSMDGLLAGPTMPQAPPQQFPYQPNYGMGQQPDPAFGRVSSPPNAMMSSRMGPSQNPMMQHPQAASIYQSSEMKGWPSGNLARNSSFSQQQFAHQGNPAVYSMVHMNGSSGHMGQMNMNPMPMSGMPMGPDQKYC", "assay": "as §1, with “3 (SRC-3)” for “2 (SRC-2)”, “1301 (Confirmation screen.), 1048 (Primary screen.)]” for “1297, 1032 ]”", "type": "functional"}, "Fatty acid synthase": {"target": "Fatty acid synthase (Homo sapiens, UniProt P49327)", "assay": "inhibition of human FAS-TE enzyme activity – biochemical, kinetic fluorescence intensity, dose response (AID 624326)", "type": "functional"}, "H9c2": {"test_system": "H9c2", "assay": "cells", "type": "functional, cell-based", "conditions": "Rattus norvegicus, H9c2, Myocardium"}, "Hexokinase": {"target": "T1, Hexokinase (Trypanosoma brucei, UniProt Q38C41)", "T1 sequence (Q38C41 whole entry)": "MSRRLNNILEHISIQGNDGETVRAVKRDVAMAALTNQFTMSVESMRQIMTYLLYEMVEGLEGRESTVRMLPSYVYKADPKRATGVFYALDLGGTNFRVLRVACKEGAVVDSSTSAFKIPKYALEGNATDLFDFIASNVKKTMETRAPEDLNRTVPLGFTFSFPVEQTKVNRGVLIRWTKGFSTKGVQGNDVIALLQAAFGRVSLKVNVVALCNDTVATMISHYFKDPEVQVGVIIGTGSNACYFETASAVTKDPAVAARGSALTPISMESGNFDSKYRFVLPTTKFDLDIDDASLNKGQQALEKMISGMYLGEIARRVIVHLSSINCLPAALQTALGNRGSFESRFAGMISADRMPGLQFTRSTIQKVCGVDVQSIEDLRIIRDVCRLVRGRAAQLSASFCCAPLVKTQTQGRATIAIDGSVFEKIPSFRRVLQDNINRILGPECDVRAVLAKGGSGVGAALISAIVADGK", "assay": "Confirmation assay for inhibitors of Trypanosoma brucei hexokinase 1-Analogue-first series. [Related pubchem assays (depositor defined):AID1430, AID1632, AID2516, AID2560, AID2579, AID2600, AID449725, AID492951]", "type": "functional"}, "[4]": {"target": "T2, Alkaline phosphatase, tissue-nonspecific isozyme (Homo sapiens, UniProt P05186)", "T2 sequence (P05186 whole entry)": "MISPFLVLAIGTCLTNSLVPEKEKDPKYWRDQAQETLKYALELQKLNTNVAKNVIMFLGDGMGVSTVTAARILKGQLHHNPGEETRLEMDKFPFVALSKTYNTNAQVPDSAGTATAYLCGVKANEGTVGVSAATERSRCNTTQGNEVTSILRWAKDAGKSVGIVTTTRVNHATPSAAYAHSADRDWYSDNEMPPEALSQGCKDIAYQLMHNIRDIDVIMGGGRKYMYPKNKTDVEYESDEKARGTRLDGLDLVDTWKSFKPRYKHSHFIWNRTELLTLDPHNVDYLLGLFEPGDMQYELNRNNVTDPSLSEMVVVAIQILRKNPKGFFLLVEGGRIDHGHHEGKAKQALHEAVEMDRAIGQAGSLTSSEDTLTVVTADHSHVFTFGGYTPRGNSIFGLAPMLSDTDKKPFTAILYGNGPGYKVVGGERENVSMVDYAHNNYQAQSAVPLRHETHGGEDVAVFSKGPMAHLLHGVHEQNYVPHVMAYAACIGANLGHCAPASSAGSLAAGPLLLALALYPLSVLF", "assay": "potency against alkaline phosphatase TNAP – biochemical, luminescent, dose response, SAR follow-up (AID 1056)"}, "Nonstructural protein 1": {"target": "Nonstructural protein 1 (Influenza A virus, UniProt Q194T2)", "sequence (Q194T2 whole entry)": "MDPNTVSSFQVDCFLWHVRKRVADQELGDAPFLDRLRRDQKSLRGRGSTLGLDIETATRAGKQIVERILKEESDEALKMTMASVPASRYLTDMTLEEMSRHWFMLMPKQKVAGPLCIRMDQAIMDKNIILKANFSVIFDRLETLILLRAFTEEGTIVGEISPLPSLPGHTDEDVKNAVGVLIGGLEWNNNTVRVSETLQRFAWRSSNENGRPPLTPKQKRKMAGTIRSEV", "type": "functional, Influenza A virus (A/California/07/2009(H1N1))"}, "Hexokinase-1": {"target": "T3, Hexokinase-1 (Homo sapiens, UniProt P19367)", "T3 sequence (P19367 whole entry)": "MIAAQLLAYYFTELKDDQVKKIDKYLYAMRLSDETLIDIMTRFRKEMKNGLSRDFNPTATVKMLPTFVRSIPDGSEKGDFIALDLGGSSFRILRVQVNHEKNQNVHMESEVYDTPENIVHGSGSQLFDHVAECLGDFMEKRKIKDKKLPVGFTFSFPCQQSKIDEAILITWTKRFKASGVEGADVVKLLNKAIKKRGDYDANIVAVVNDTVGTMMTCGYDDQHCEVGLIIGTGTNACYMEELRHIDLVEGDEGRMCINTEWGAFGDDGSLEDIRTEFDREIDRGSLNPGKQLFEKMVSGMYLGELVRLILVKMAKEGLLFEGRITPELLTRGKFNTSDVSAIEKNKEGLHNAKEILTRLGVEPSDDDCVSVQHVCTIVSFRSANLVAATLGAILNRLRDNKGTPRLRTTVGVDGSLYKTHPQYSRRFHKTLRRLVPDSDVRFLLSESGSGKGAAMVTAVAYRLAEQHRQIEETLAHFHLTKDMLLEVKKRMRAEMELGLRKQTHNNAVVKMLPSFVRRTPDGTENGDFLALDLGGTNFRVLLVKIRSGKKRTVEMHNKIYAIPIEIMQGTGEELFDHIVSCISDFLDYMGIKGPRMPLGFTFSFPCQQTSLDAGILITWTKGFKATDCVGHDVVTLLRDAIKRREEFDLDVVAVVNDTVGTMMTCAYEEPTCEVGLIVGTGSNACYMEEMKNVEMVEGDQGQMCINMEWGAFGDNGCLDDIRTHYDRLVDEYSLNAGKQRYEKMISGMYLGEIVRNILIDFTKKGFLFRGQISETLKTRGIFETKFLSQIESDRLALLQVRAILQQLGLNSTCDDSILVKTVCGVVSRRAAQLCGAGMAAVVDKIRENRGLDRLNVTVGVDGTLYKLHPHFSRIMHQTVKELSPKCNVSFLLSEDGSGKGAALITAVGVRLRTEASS", "assay": "HK1 enzyme activation by HKDC1 hits – biochemical, selectivity assay for HKDC1 activator project, dose response (AID 504762)", "type": "functional"}, "Hexokinase HKDC1": {"target": "T4, Hexokinase HKDC1 (Homo sapiens, UniProt Q2TB90)", "T4 sequence (Q2TB90 whole entry)": "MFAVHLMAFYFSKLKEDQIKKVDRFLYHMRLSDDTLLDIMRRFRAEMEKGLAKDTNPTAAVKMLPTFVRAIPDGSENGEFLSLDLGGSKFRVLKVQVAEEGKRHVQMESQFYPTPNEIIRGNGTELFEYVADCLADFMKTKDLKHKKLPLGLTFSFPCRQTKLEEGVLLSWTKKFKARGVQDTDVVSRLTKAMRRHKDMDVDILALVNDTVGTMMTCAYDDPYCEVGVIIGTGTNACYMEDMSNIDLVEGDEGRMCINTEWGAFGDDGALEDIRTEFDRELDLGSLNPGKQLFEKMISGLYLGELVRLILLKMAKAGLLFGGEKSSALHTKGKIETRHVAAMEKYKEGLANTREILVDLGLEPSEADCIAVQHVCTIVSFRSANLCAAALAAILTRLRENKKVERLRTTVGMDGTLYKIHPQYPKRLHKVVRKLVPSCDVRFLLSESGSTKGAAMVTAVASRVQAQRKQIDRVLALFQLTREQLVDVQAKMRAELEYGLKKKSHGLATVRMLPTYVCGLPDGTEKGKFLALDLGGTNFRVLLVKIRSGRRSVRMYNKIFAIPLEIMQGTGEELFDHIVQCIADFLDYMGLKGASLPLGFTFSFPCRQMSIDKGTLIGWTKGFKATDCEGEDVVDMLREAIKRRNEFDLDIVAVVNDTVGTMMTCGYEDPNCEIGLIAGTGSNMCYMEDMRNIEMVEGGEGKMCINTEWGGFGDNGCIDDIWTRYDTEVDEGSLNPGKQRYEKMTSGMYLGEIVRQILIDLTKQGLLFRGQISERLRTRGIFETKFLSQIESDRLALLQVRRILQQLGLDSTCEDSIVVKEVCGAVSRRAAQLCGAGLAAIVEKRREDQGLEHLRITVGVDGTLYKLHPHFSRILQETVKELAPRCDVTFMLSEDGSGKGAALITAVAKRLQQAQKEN", "assay": "activation of HKDC1 glucose phosphorylation – biochemical, W721R variant, dose response (AID 504730)", "type": "functional"}, "Bcl-2-related protein A1": {"target": "T5, Bcl-2-related protein A1 (Mus musculus, UniProt Q07440)", "T5 sequence (Q07440 whole entry)": "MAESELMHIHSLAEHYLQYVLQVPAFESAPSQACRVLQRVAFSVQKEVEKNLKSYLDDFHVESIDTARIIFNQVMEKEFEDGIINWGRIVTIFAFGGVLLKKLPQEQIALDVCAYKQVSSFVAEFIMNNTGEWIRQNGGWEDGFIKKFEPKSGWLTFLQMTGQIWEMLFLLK", "type": "functional"}, "[5]": {"target": "T6, Ubiquitin-conjugating enzyme E2 N (Homo sapiens, UniProt P61088)", "T6 sequence (P61088 whole entry)": "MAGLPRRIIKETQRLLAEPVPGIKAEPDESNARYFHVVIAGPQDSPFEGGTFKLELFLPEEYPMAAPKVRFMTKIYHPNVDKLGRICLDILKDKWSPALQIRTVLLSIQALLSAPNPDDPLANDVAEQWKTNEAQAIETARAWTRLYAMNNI", "type": "functional"}, "[6]": {"target": "T6, Ubiquitin-conjugating enzyme E2 N", "type": "functional", "remark": "listed apart in the source"}},
  "note": "Activity calls are given as the source filed them.",
  "data": [
    {"smiles": "CCOC(=O)C1CCN(C(=O)CSc2c3c(nc4ccccc24)CCC3)CC1", "values": [
      {"measurement": "EC50", "setting": "[1]", "result": "> 79.4 µM (inactive)"},
      {"measurement": "EC50", "setting": "[2]", "result": "> 79.4 µM (not active)"},
      {"measurement": "EC50", "setting": "[3]", "result": "> 79.4 µM (not active)"}
    ]},
    {"smiles": "O=C(Nc1nc(-c2ccc(S(=O)(=O)N3CCCC3)cc2)cs1)C1COc2ccccc2O1", "note": "(centres undefined)", "values": [
      {"measurement": "IC50", "setting": "Fatty acid synthase", "result": "1.28 µM (active)"},
      {"measurement": "IC50", "setting": "H9c2", "result": "> 79 µM (inactive)"},
      {"measurement": "EC50", "setting": "[1]", "result": "31 µM (inactive)"},
      {"measurement": "EC50", "setting": "[2]", "result": "27.7 µM (not active)"},
      {"measurement": "EC50", "setting": "[3]", "result": "> 79.4 µM (not active)"}
    ]},
    {"smiles": "CC(C(=O)Nc1ccccc1)n1sc2ccccc2c1=O", "note": "(centres undefined)", "values": [
      {"measurement": "IC50", "setting": "Hexokinase", "result": "8.14 µM (active)"}
    ]},
    {"smiles": "COc1cc(C(=O)CSc2nc(C)cc(C)n2)ccc1O", "values": [
      {"measurement": "IC50", "setting": "[4]", "result": "> 100 µM (inactive)"}
    ]},
    {"smiles": "S=C(NCc1ccccn1)NN=Cc1ccccn1", "values": [
      {"measurement": "IC50", "setting": "Nonstructural protein 1", "result": "3.89 µM (active)"},
      {"measurement": "EC50", "setting": "Hexokinase-1", "result": "> 80 µM (inactive)"},
      {"measurement": "EC50", "setting": "Hexokinase HKDC1", "result": "27.8 µM (inactive)"}
    ]},
    {"smiles": "COC(=O)c1ccc(Cn2c(O)c(/N=N/C(=N)S)c3ccccc32)o1", "values": [
      {"measurement": "IC50", "setting": "Bcl-2-related protein A1", "result": "> 20 µM (inactive)"},
      {"measurement": "IC50", "setting": "[5]", "result": "14.1 µM (active)"},
      {"measurement": "IC50", "setting": "[6]", "result": "> 20 µM (inactive)"}
    ]},
    {"smiles": "Nn1cnnc1N/N=C/c1cc(Br)cc(Br)c1O", "values": [
      {"measurement": "IC50", "setting": "Nonstructural protein 1", "result": "10.7 µM (active)"},
      {"measurement": "EC50", "setting": "Hexokinase-1", "result": "42.3 µM (inactive)"},
      {"measurement": "EC50", "setting": "Hexokinase HKDC1", "result": "> 80 µM (inactive)"}
    ]}
  ]
}
